{
  "source": "patent US7132287B2",
  "about": "“Method for neural stem cell differentiation using 5HT-1A agonists” (Psychiatric Genomics, Inc., priority 2001, dated 2006)",
  "molecules": {"B1": {"name": "BDNF: brain-derived neurotrophic factor (R&D Systems), a known neuronal differentiation factor; positive control (protein, UniProt P23560 19-247, looked up)", "Neurotrophic factor BDNF …": "APMKEANIRGQGGLAYPGVRTHGTLESVNGPKAGSRGLTSLADTFEHVIEELLDEDQKVRPNEENNKDADLYTSRVMLSSQVPLEPPLLFLLEEYKNYLDAANMSMRVRRHSDPARRGELSVCDSISEWVTAADKKTAVDMSGGTVTVLEKVPVSKGQLKQYFYETKCNPMGYTKEGCRGIDKRHWNSQCRTTQSYVRALTMDSKKRIGWRFIRIDTSCVCTLTIKRGR"}},
  "key": {"5HT1A receptor [1]": {"biological_target": "T1, 5HT1A receptor (Homo sapiens, UniProt P08908)", "T1 sequence (P08908 1-422)": "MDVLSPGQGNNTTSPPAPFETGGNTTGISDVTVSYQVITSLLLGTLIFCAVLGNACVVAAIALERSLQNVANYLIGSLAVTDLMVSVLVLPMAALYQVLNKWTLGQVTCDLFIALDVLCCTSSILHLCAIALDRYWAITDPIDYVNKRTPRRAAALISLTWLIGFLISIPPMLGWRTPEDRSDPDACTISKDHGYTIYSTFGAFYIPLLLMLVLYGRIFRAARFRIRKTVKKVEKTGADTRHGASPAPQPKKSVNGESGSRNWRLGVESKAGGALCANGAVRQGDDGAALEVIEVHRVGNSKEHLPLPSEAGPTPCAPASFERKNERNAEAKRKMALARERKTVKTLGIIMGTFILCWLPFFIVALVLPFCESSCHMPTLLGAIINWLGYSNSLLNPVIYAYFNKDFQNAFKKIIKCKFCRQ", "details": "cited from earlier work"}, "5HT1A receptor [2]": {"biological_target": "T1, 5HT1A receptor", "details": "cited from earlier work", "remark": "listed apart in the source"}, "[3]": {"test_system": "cerebellar neural stem cells", "method": "Cells were treated with the drugs as shown in the presence or absence of the 5HT 1A antagonist WAY 100635 (10 nM), or vasoactive intestinal peptide\nDrug treatments were started on the next day. Optimal concentrations were as follows: bFGF: 10 ng/ml; BDNF (R&D Systems, Minneapolis, Minn.): 20 ng/ml; buspirone (Sigma): 100–1000 nM; or Serotonin (Sigma): 5–10 μM; buspirone or serotonin and the 5HT1A antagonist WAY100635 (Sigma): 10 nM. The WAY 100635 antagonist compound was used simultaneously with buspirone or serotonin in the blocking experiments. Positive and negative control cultures were those treated with BDNF and FGF alone, respectively.\nUntreated cells were used as a negative control."}, "adult rat hippocampus": {"test_system": "adult rat hippocampus", "details": "Mahlberg et al., preliminary data; cited from earlier work"}, "[4]": {"biological_target": "T2, 5-HT1A receptors over dopamine D2 receptors (Homo sapiens, UniProt P08908)", "T2 sequence (P08908 1-422)": "T1 sequence (P08908 1-422)", "details": "compared to buspirone; cited from earlier work"}, "cerebellar stem cells": {"test_system": "cerebellar stem cells", "assay": "Neuronal differentiation of cerebellar stem cells (TuJ1 positive cells)", "format": "cell-based, rat", "details": "FIG. 2, lane 5, serotonin 5 μM; untreated control less than 20%", "excerpt": "Isolation and quantitation of cerebellar stem cells. Neural stem cells were isolated from rat embryos (obtained from Taconic) at the 19th day of gestation (E19). The rats were sacrificed by inhalation of excess carbon dioxide. The abdomen of the rat was cleaned with 70% ethanol and the uterus was removed quickly and aseptically on the bench top. The uterus was placed in ice cold PBS (GIBCO Cat. # 20012-027) in a 200-ml beaker.\nThe cerebellar tissue was dissected under a microscope according to the following procedure and collected in a 15-ml tube containing HBSS on ice. The dissection should be completed in 1–2 hours (optimally) and the pH of the HBSS should remain neutral. First, the neck of the embryos was severed towards the bottom and the heads were collected in cold PBS. Next, the skin and scalp was removed from neck and head of the embryo. The brain, including the cerebral cortex, midbrain, cerebellum and some of the spinal cord, was removed by dissection under a microscope and transfered into a clean dish with fresh, cold PBS. The cerebellar region was dissected and cleaned of extraneous tissue, including removal of the meninges, and transferred into cold HBSS in a clean 15 ml tube.\nThe tube containing the cerebellar tissue was centrifuged at 1,000 RPM for 2 min at 15 C., followed by slow, careful aspiration of the HBSS supernatant (care should be taken to avoid aspirating tissue). (It is best to limit the centrifugation steps as much as possible.) About 1 to 3 ml of DMEM/F12/N2 medium (see below) was immediately added to the remaining tissue; the volume of medium depends on the quantity of the dissected tissue. The tissue was gently triturated about 8 to 10 times using a P-1000 Pipetteman until the tissue was dissociated (as evidenced by cloudy solution), then the tube was incubated in the hood for 5 minutes at room temperature to permit settlement of small particles of undissociated tissue. The supernatant was then transferred into a fresh tube, taking care to avoid the smaller particles of tissue that remained at the bottom of the tube.\nPlating and expansion of cerebellar stem cells. The triturated cell suspension of E19 rat cerebellum was seeded into pre-coated 10 cm dishes at 2×10^6 cells per dish. This is denoted as the P0 culture (passage 0). The cells were grown in 5 ml of DMEM/F12/N2 supplemented with 25 mg/L insulin and 10 ng/ml bFGF at 37 C, 5% CO2 and 90% humidity.\nCells were fed daily with 10 ng/ml bFGF. The medium was changed one day after the cells were seeded, and thereafter every other day. On about day 4 of the culture, or when cells reached 70% confluence, the culture was passaged (see “Passage of cerebellar stem cells” below) and seeded into 10 cm dishes at an initial density of 2×10^6 cells per dish. This is denoted as the P1 culture (passage 1). The passaged cells at P1 were grown in DMEM/F12/N2 medium supplemented with 25 mg/L insulin and 10 ng/ml bFGF. The medium was changed every other day.\nAfter two days of culture, some cells were passaged into a P2 culture, and some were seeded in 12-well tissue culture plates for experimental use. One ml of DMEM/F12/N2 medium was used per well of a 12-well plate at 2×10^4 cells per well. Experimental treatments were initiated the day after passage.\n(§1) Drug treatments. Stem cells obtained as described above were treated with drugs and subjected to differentiation protocols in the second passage. Cells were plated at a density of 1×10^4 cells per well of a 12-well petridish (Falcon).\nDrug treatments were started on the next day. […] The WAY 100635 antagonist compound was used simultaneously with buspirone or serotonin in the blocking experiments."}, "[5]": {"test_system": "cortical neural stem cells", "assay": "Neuronal differentiation of cortical neural stem cells (β tubulin III / TuJ-1 immunofluorescence)", "format": "cell-based, rat", "details": "6 days", "excerpt": "Isolation of cortical and striatal stem cells. Timed pregnant Sprague Dawley rats obtained from Taconic at embryonic age E14-E15 were sacrificed as described above and the uterus removed and placed in ice cold PBS in a 10 cm petridish. After rinsing the uterus in PBS, embryos were removed from the uterus, rinsed in PBS and collected in cold HBSS (buffered with HEPES and sodium bicarbonate) in a 10 cm petridish and placed on ice.\nThe cortex and striatum was dissected under a microscope and collected in a 15 ml tube of HBSS, on ice. Removal of meninges is not possible at this age, and no attempt was made to do so. If the dissected tissue was in large enough chunks and settle to the bottom of the tube, no centrifugation was performed. Alternatively, the tube was centrifuged at 1000 rpm for 5 minutes to pellet the tissue. Following centrifugation, the 15 ml tube containing the tissue was sprayed with 70% ethanol and taken into the sterile hood.\nThe HBSS was aspirated and replaced with 10 ml of DMEM/F12. The tissue was collected at the bottom of the tube by gravity or centrifugation, medium was aspirated, and 1 ml of DMEM/F12 was to the tissue. Cells were dissociated by trituration as described above, followed by addition of 5 ml of DMEM/F12 and a second round of trituration. […] The tubes were placed standing 5–10 minutes in the hood to allow larger particles and meninges to settle. While the meninges were settling, a cell count was made. 10 μl of the cell suspension is diluted with trypan blue and counted in a hemocytometer. Cells were counted in the four outer chambers with the larger squares, and cell count calculated assuming that the volume enclosed in each of the chambers was […].\nPlating, expansion and passaging of cortical and striatal stem cells A generous amount of the triturated cell suspension was left in the original 15 ml tube to avoid fibroblast contamination in cultures. About 4–5 ml of the 6 ml of cells suspension was used for plating. Cells were plated at a concentration of approximately 1×10^6 per 10 cm dish. This culture is designated P0 (passage 0).\nFollowing plating cells were expanded for about 3–4 days. The cultures were never permitted to reach more than 70% confluency. Cultures were then passaged as follows: 5 ml of HBSS was added to each 10 cm dish and the cells incubated at 37° C. for 15–45 minutes, or until sufficient numbers of the stem cells were rounded up. It is not expected that all cells in the culture will round up as there are several cell types in the culture at P0. The pH of the HBSS should be neutral at all times during this incubation. Cells were then removed from the dish by pipetting with a 5 ml pipette, or by scraping with a policeman, collected in a 15 or 50 ml conical tube, and centrifuged at 1000 g for 5 minutes. Cells were gently re-suspended in medium, counted, and plated at a density of about 1×10^6 per 10 cm dish.\nas §1\nDrug treatments were started on the next day. […] The WAY 100635 antagonist compound was used simultaneously with buspirone or serotonin in the blocking experiments. Positive and negative control cultures were those treated with BDNF and FGF alone, respectively.\nCells were treated with the designated concentrations of drugs or combinations thereof, daily, and were fed every alternate day with fresh medium. Experiments were maintained for about 6–10 days in most cases."}},
  "note": "Where “and” joins values, the source holds several entries; their conditions need not be identical. Identical values can stand only once.",
  "data": [
    {"molecule": "COc1ccc2[nH]cc(CCN(C)C)c2c1", "note": "[5-methoxy-N,N-dimethyltryptamine]", "values": [
      {"measurement": "affinity for the 5HT1A receptor", "setting": "5HT1A receptor [1]", "result": "high affinity"}
    ]},
    {"molecule": "CCCN(CCC)[C@@H]1CCc2ccc3[nH]c(C#N)cc3c2C1", "note": "[U-92016A]", "values": [
      {"measurement": "intrinsic activity as 5-HT1A receptor agonist", "setting": "5HT1A receptor [2]", "result": "exceptionally high degree of intrinsic activity"}
    ]},
    {"molecule": "COc1ccccc1N1CCN(CCN(C(=O)C2CCCCC2)c2ccccn2)CC1", "note": "[WAY100635, N-[2-[4-(2-Methoxyphenyl)-1-piperazinyl]ethyl]-N-2-pyridinylcyclohexanecarboxamide]", "values": [
      {"measurement": "effect of antagonist on buspirone-induced neuronal differentiation", "setting": "[3]; WAY100635 10 nM added simultaneously with buspirone 500 nM, FIG. 2 lane 4", "result": "inhibited neuronal differentiation"},
      {"measurement": "effect of antagonist on serotonin-induced neuronal differentiation", "setting": "[3]; WAY100635 10 nM added simultaneously with serotonin 5 μM, FIG. 2 lane 6", "result": "inhibited neuronal differentiation"},
      {"measurement": "effect of antagonist on vasoactive intestinal peptide-induced neuronal differentiation", "setting": "[3]; WAY100635 10 nM added to VIP-treated cells, FIG. 2 lane 8", "result": "did not prevent or inhibit neuronal differentiation"}
    ]},
    {"molecule": "CNCCC(Oc1ccc(C(F)(F)F)cc1)c1ccccc1", "note": "(centres unmarked) [fluoxetine]", "values": [
      {"measurement": "neurogenesis in adult rat hippocampus", "setting": "adult rat hippocampus", "result": "increases neurogenesis"}
    ]},
    {"molecule": "CC1(C)CC(=O)N(CCCCN2CCN(c3ncccn3)CC2)C(=O)C1", "note": "[gepirone]", "values": [
      {"measurement": "selectivity for 5-HT1A receptors over dopamine D2 receptors", "setting": "[4]", "result": "much greater selectivity"}
    ]},
    {"molecule": "NCCc1c[nH]c2ccc(O)cc12", "note": "[serotonin, 5-hydroxytryptamine]", "values": [
      {"measurement": "differentiation of neurons", "setting": "cerebellar stem cells", "result": 60, "unit": "%"}
    ]},
    {"molecule": "bFGF: recombinant human basic fibroblast growth factor (R&D Systems), mitogenic growth factor; negative control", "values": [
      {"measurement": "Total No. of Cells", "setting": "[5]; 10 ng/ml bFGF", "result": "7330 and 10210"},
      {"measurement": "No. Fluorescent Cells", "setting": "[5]; 10 ng/ml bFGF, TuJ-1 staining", "result": "33 and 65"}
    ]},
    {"molecule": "B1", "values": [
      {"measurement": "Total No. of Cells", "setting": "[5]; 20 ng/ml BDNF", "result": "624 and 1006"}
    ]}
  ]
}
